Test results: patent US20080070946A1, “Hydroxymethylbenzothiazoles Amides” (AstraZeneca AB, priority 2004, published 2008)

Key:
hVR1 = biological target: T1, hVR1 (Homo sapiens, UniProt Q8NER1); experiment: hVR1 FLIPR (Fluorometric Image Plate Reader) screening assay, IC50 determination; format: cell-based; settings: CHO cells stably expressing hVR1
T1 construct: expressed in transfected cells
Experimental: 1. hVR1 FLIPR (Fluorometric Image Plate Reader) Screening Assay
Transfected CHO cells, stably expressing hVR1 (15,000 cells/well) are seeded in 50 ul media in a black clear bottom 384 plate (Greiner) and grown in a humidified incubator (37° C., 2% CO2), 24-30 hours prior to experiment.
Subsequently, the media is removed from the cell plate by inversion and 2 μM Fluo-4 is added using a multidrop (Labsystems). Following the 40 minutes dye incubation in the dark at 37° C. and 2% CO2, the extracellular dye present is washed away using an EMBLA (Scatron), leaving the cells in 40 ul of assay buffer (1× HBSS, 10 mM D-Glucose, 1 mM CaCl2, 10 mM HEPES, 10×7.5% NaHCO3 and 2.5 mM Probenecid).
FLIPR Assay—IC50 Determination Protocol
For IC50 determinations the fluorescence is read using FLIPR filter 1 (em […]). A cellular baseline recording is taken for 30 seconds, followed by a 20 μl addition of 10, titrated half-log concentrations of the test compound, yielding cellular concentration ranging from 3 μM to 0.1 nM. Data is collected every 2 seconds for a further 5 minutes prior to the addition of a VR1 agonist solution: either 50 nM solution of capsaicin or MES (2-[N-morpholino]ethanesulfonic acid) buffer (pH 5.2), by the FLIPR pipettor. The FLIPR continues to collect data for a further 4 minutes. Compounds having antagonistic properties against the hVR1 will inhibit the increase in intracellular calcium in response to the capsaicin addition. This consequently leading to a reduction in fluorescence signal and providing a reduced fluorescence reading, compared with no compound, buffer controls. Data is exported by the FLIPR program as a sum of fluorescence calculated under the curve upon the addition of capsaicin. Maximum inhibition, Hill slope and IC50 data for each compound are generated.

[1] = Metabolic stability in rat hepatocytes (intrinsic clearance); format: in vitro ADME; settings: male, Sprague-Dawley, freshly isolated rat hepatocytes, read-out: rClint hep
Experimental: Metabolic Stability in Rat Hepatocytes
Cells source: in house fresh isolated rat hepatocytes from male sprague-Dawley.
1 μM of compound incubated in Krebs-Heinsleit buffer with 1×10^6 cells in 37° C. for 0, 15, 30, 60 and 90 min. A total volume of each incubation was 100 μL containing 0.1% DMSO. The reaction was stopped by adding 100 μL acetonitrile.
After reaction was stopped. The sample was centrifuged at 1900 g for 5 min. Supernatant was transferred to a clean tube for analysis.

T1 sequence (Q8NER1 whole entry): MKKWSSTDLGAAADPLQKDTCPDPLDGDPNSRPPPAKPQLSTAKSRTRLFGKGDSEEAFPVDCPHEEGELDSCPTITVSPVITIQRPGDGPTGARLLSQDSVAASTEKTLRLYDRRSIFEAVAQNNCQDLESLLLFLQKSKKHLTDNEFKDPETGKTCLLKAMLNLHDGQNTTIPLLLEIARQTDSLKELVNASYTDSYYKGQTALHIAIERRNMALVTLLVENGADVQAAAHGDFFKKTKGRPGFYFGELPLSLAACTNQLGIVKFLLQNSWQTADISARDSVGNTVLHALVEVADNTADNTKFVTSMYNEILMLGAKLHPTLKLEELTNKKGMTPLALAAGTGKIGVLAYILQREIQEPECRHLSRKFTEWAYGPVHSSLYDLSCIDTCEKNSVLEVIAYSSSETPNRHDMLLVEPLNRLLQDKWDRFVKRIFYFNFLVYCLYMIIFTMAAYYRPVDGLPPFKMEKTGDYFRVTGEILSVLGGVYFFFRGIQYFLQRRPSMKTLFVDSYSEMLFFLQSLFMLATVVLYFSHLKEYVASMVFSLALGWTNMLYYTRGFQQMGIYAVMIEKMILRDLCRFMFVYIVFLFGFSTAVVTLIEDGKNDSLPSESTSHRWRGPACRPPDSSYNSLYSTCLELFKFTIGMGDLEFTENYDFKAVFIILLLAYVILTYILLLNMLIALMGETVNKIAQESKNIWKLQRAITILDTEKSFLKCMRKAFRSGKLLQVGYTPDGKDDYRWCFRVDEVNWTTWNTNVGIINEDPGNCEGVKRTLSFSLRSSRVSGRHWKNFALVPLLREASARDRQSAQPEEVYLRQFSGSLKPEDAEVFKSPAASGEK

Row | IC50 (hVR1; agonist capsaicin) [nM] | Hepatocyte intrinsic clearance at 1 μM [1] [µL/min/mg] | IC50 (hVR1; agonist pH 5.2 buffer) [nM] | Structure (SMILES)
1 | 8 | – | – | O=C(Nc1ccc2sc(CO)nc2c1)c1ccc(OC(F)(F)C(F)F)cc1 [Example 5, N-[2-(hydroxymethyl)-1,3-benzothiazol-5-yl]-4-(1,1,2,2-tetrafluoroethoxy)benzamide]
2 | 54 | 14 | – | CN(C)c1ccc(C(=O)Nc2ccc3sc(CO)nc3c2)c2ccccc12 [Example 10, 4-(dimethylamino)-N-[2-(hydroxymethyl)-1,3-benzothiazol-5-yl]-1-naphthamide]
3 | 47 | 10 | – | Cc1cc(OC(C)C)ccc1C(=O)Nc1ccc2sc(CO)nc2c1 [Example 24, N-[2-(hydroxymethyl)-1,3-benzothiazol-5-yl]-4-isopropoxy-2-methylbenzamide]
4 | 4 | – | – | O=C(Nc1ccc2sc(CO)nc2c1)c1ccc(C(F)(F)F)c(F)c1 [Example 7, 3-Fluoro-N-[2-(hydroxymethyl)-1,3-benzothiazol-5-yl]-4-(trifluoromethyl)benzamide]
5 | 23 | – | – | O=C(Nc1ccc2sc(CO)nc2c1)c1ccc(C2CCCCC2)cc1 [Example 6, 4-Cyclohexyl-N-[2-(hydroxymethyl)-1,3-benzothiazol-5-yl]benzamide]
6 | 67 | 11.8 | – | Cc1cc(OC(C)C)ccc1C(=O)Nc1ccc2sc(CO)nc2c1F [Example 40, N-[4-fluoro-2-(hydroxymethyl)-1,3-benzothiazol-5-yl]-4-isopropoxy-2-methylbenzamide]
7 | 904 | – | – | O=C(Nc1ccc2sc(CO)nc2c1F)c1ccc(C(F)(F)F)nc1 [Example 42, N-[4-fluoro-2-(hydroxymethyl)-1,3-benzothiazol-5-yl]-6-(trifluoromethyl)nicotinamide]
8 | – | – | 417 | O=C(Nc1ccc2sc(CO)nc2c1)c1ccc(C(F)(F)F)nc1 [Example 8, N-[2-(hydroxymethyl)-1,3-benzothiazol-5-yl]-6-(trifluoromethyl)nicotinamide]
9 | 489 | – | – | O=C(Nc1ccc2sc(CO)nc2c1F)c1ccc(OCC(F)(F)F)nc1 [Example 43, N-[4-fluoro-2-(hydroxymethyl)-1,3-benzothiazol-5-yl]-6-(2,2,2-trifluoroethoxy)nicotinamide]
10 | 86 | – | – | O=C(Nc1ccc2sc(CO)nc2c1)c1ccc(N2CCCCC2)nc1 [Example 9, N-[2-(hydroxymethyl)-1,3-benzothiazol-5-yl]-6-piperidin-1-ylnicotinamide]
11 | 1950 | – | – | Cc1nc(C(F)(F)F)ccc1C(=O)Nc1ccc2sc(CO)nc2c1F [Example 41, N-[4-fluoro-2-(hydroxymethyl)-1,3-benzothiazol-5-yl]-2-methyl-6-(trifluoromethyl)nicotinamide]

Row | Structure (SMILES) | IC50 (hVR1; agonist capsaicin) [nM] | Hepatocyte intrinsic clearance at 1 μM [1] [µL/min/mg] | IC50 (hVR1; agonist pH 5.2 buffer) [nM]
12 | Cc1cc(OC(C)(C)C)ccc1C(=O)Nc1ccc2sc(CO)nc2c1 [Example 23, 4-tert-butoxy-N-[2-(hydroxymethyl)-1,3-benzothiazol-5-yl]-2-methylbenzamide] | 59 | 22 | –
